Results reported in patent publication US20240400564A1 (Syndax Pharmaceuticals, Inc, priority 2021, published 2024).

Target: T1, human Menin and N-terminal portion of human MLL (amino acids 4-43) (Homo sapiens, UniProt O00255)
T1 construct: H-FL-Menin diluted to 4 nM in assay buffer
T1 sequence (O00255 1-610): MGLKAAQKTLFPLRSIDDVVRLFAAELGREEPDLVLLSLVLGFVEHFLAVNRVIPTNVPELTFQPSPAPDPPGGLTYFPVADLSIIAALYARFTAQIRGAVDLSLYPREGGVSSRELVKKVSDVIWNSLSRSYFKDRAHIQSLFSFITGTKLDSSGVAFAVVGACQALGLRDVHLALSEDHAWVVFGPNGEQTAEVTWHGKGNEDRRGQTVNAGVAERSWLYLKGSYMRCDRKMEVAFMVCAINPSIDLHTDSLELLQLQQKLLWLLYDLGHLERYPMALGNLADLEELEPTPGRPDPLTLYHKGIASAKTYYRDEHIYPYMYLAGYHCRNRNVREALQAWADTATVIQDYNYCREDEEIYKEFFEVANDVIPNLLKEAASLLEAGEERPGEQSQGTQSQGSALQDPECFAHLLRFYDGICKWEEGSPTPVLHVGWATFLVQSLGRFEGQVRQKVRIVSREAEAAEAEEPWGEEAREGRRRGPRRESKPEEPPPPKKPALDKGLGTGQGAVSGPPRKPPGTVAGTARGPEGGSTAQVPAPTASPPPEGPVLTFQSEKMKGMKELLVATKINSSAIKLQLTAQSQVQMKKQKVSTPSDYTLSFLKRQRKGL
Test: Menin-MLL competition assay (HTRF)
Type: binding
Conditions: 1 hr incubation
Text: Menin-MLL is a competition assay between human Menin and N-terminal portion of human MLL representing amino acids 4-43 of the protein. The interaction between Menin and MLL peptide was monitored by HTRF employing Terbium labeled anti-His6 antibody directed to the N-terminal His6-tag on recombinant Menin and FITC group covalently attached to the MLL peptide. The N-terminal fragment of MLL, retained in all MLL fusion proteins, is involved in the interactions with Menin, and this protein-protein interaction is critical for the MLL fusion proteins mediated leukemogenic transformations.
For IC50 determination test compounds were prepared as 10 mM DMSO stock solutions. Considering DMSO as the vehicle in the assay system. Lower sub-stocks of 50 μM were prepared from the 10 mM stock solution. To test the compounds in assay, 3.16-fold serial dilutions are made in 100% DMSO. Mid-stock of 50×compounds (50 μM) were serially diluted (3.16 fold) in 100% DMSO in Polypropylene plate. In assay plate 1 micro-litre of the previously prepared compound dilution was stamped. H-FL-Menin diluted to 4 nM in assay buffer (50 mM Tris-HCl, pH 7.4, 50 mM NaCl, freshly prepared 1 mM DTT, 0.01% BSA, 0.005% Triton X-100) was pre-incubated with 8 nM anti-His6-Tb for 30 min at room temperature. FITC-MLL-4-43 was diluted to 2 nM in assay buffer and 25 μL was dispensed into each well of the assay plate followed by addition of 25 μl of pre-incubated H-FL-Menin and anti-His6-Tb mixture. Final concentration H-FL-Menin diluted to 1 nM in assay plate with 2 nM anti-His6-Tb and 1 nM FITC-MLL-4-43. After 1 hr incubation at room temperature, the HTRF signal was measured on the Spark multi-label plate reader. Resulting data were captured as a ratio of RFU520/RFU485×1000. The max values were obtained from 0% inhibition in presence of 2% DMSO and the min. values were 100% inhibition in presence of 1 μM reference compound.

CCS(=O)(=O)N[C@@H]1CC[C@@H](CN2CCC3(CC2)CN(c2ncncc2Oc2ccc(F)cc2C(=O)N(CCOC)C(C)C)C3)OC1 [Example 35, 2-((4-(7-(((2S,5R)-5-(Ethylsulfonamido)tetrahydro-2H-pyran-2-yl)methyl)-2,7-diazaspiro[3.5]nonan-2-yl)pyrimidin-5-yl)oxy)-5-fluoro-N-isopropyl-N-(2-methoxyethyl)benzamide]
IC50: < 100 nM

COCCN(C(=O)c1cc(F)ccc1Oc1cncnc1N1CC2(CCN(C[C@@H]3CC[C@@H](NS(=O)(=O)C4CC4)CO3)CC2)C1)C(C)C [Example 51, 2-((4-(7-(((2S,5R)-5-(Cyclopropanesulfonamido)tetrahydro-2H-pyran-2-yl)methyl)-2,7-diazaspiro[3.5]nonan-2-yl)pyrimidin-5-yl)oxy)-5-fluoro-N-isopropyl-N-(2-methoxyethyl)benzamide]
IC50: < 100 nM

CCCS(=O)(=O)N[C@@H]1CC[C@@H](CN2CCC3(CC2)CN(c2ncncc2Oc2ccc(F)cc2C(=O)N(CC)C(C)C)C3)OC1 [Example 9, N-Ethyl-5-fluoro-N-isopropyl-2-((4-(7-(((2S,5R)-5-(propylsulfonamido)tetrahydro-2H-pyran-2-yl)methyl)-2,7-diazaspiro[3.5]nonan-2-yl)pyrimidin-5-yl)oxy)benzamide]
IC50: < 100 nM

C[C@@H]1COC[C@@H](C)N1C(=O)c1cc(F)ccc1Oc1cncnc1N1CC2(CCN(C[C@@H]3CC[C@@H](NS(=O)(=O)C4CC4)CO3)CC2)C1 [Example 31, N-((3R,6S)-6-((2-(5-(2-((3R,5R)-3,5-dimethylmorpholine-4-carbonyl)-4-fluorophenoxy)pyrimidin-4-yl)-2,7-diazaspiro[3.5]nonan-7-yl)methyl)tetrahydro-2H-pyran-3-yl)cyclopropanesulfonamide]
IC50: < 100 nM

CC(C)S(=O)(=O)N[C@@H]1CC[C@@H](CN2CCC3(CC2)CN(c2ncncc2Oc2ccc(F)cc2C(=O)N2[C@H](C)COC[C@H]2C)C3)OC1 [Example 30, N-((3R,6S)-6-((2-(5-(2-((3R,5R)-3,5-Dimethylmorpholine-4-carbonyl)-4-fluorophenoxy)pyrimidin-4-yl)-2,7-diazaspiro[3.5]nonan-7-yl)methyl)tetrahydro-2H-pyran-3-yl)propane-2-sulfonamide]
IC50: < 100 nM

CCS(=O)(=O)N[C@@H]1CC[C@@H](CN2CCC3(CC2)CN(c2ncncc2Oc2ccc(F)cc2C(=O)N2[C@H](C)COC[C@@H]2C)C3)OC1 [Example 24, N-((3R,6S)-6-((2-(5-(2-((3S,5R)-3,5-dimethylmorpholine-4-carbonyl)-4-fluorophenoxy)pyrimidin-4-yl)-2,7-diazaspiro[3.5]nonan-7-yl)methyl)tetrahydro-2H-pyran-3-yl)ethanesulfonamide]
IC50: < 100 nM

CC(C)N(C(=O)c1cc(F)ccc1Oc1cncnc1N1CC2(CCN(C[C@@H]3CC[C@@H](NS(=O)(=O)C4COC4)CO3)CC2)C1)C1CC1 [Example 22, N-Cyclopropyl-5-fluoro-N-isopropyl-2-((4-(7-(((2S,5R)-5-(oxetane-3-sulfonamido)tetrahydro-2H-pyran-2-yl)methyl)-2,7-diazaspiro[3.5]nonan-2-yl)pyrimidin-5-yl)oxy)benzamide]
IC50: < 100 nM

CC(C)N(C(=O)c1cc(F)ccc1Oc1cncnc1N1CC2(CCN(C[C@@H]3CC[C@@H](NS(=O)(=O)C(C)C)CO3)CC2)C1)C1CC1 [Example 20, N-Cyclopropyl-5-fluoro-N-isopropyl-2-((4-(7-(((2S,5R)-5-((1-methylethyl)sulfonamido)tetrahydro-2H-pyran-2-yl)methyl)-2,7-diazaspiro[3.5]nonan-2-yl)pyrimidin-5-yl)oxy)benzamide]
IC50: < 100 nM

CCNC(=O)N[C@@H]1CC[C@@H](CN2CCC3(CC2)CN(c2ncncc2Oc2ccc(F)cc2C(=O)N(CC)C(C)C)C3)OC1 [Example 39, N-Ethyl-2-((4-(7-(((2S,5R)-5-(3-ethylureido)tetrahydro-2H-pyran-2-yl)methyl)-2,7-diazaspiro[3.5]nonan-2-yl)pyrimidin-5-yl)oxy)-5-fluoro-N-isopropylbenzamide]
IC50: < 100 nM
